How the values were obtained:
[1] = tested on: erythrocytic stages of P.falciparum; assay: Incorporation of radiotracers (3H-hypoxanthine, 14C-isoleucine) by P.falciparum growing in blood cultures; type: cell-based, Plasmodium falciparum
Experimental: Antibiotics—Samples of Mocimycin (kirromycin), Aurodox (N-methylated kirromycin), and Efrotomycin (a glycoside of kirromycin) were used. Aurodox was dissolved in RPMI-Albumax medium (Grande et al 1977), kirromycin was dissolved in RPMI made alkaline by addition of 1M NaOH, and efrotomycin was dissolved in ethanol before dilution in culture medium. Enacyloxin IIA was dissolved in 1% NaHCO3 prior to dilution in RPMI-Albumax medium. The antibiotic GE2270A was dissolved in 100% DMSO before dilution in culture medium. Fusidic acid (Sigma) was dissolved directly in culture medium, and thiostrepton (Sigma) in 100% DMSO before dilution in culture medium. A hemisuccinate form of thiostrepton was prepared as a potassium salt, according to Bodanszky et al 1965. Incorporation of radiotracers by P.falciparum growing in blood cultures in the presence and absence of drugs was carried out as described (Strath et al 1993).
Kirromycin: Kirromycin-resistant forms of bacterial EF-Tu are modified at one of seven amino acids along the opposing interfaces of domains I and III (Mesters et al 1994 and Abdulkarim et al 1994) and Pf EF-Tupl has a substitution at one of these sites (A375S-E.coli numbers) that could potentially confer resistance to kirromycin. To test this possibility, kirromycin (Mocimycin), its methylated derivative Aurodox or its disaccharide derivative Efrotomycin were incubated with erythrocytic stages of P.falciparum grown in cultures over a 36 hr period. The incorporation of both ^3H-hypoxanthine and ^14C-isoleucine was inhibited in a dose-dependent fashion, maximum inhibition being achieved at 100 μM kirromycin (FIG. 5). […] Once maximal depression of incorporation had been reached at any particular dose of drug, residual incorporation continued at a uniform rate thereafter. Vital staining with rhodamine 123, a fluorescent dye that concentrates within the mitochondrion (Divo et al. 1985) confirmed the parasiticidal effect, loss of specific mt staining being evident within 2-3 hours (data not shown). […] Blood cultures of P.falciparum were about 10 times more sensitive to the antibiotic than a gram-positive bacterium (Corynebacterium spp) used in parallel bioassays.

[2] = tested on: GTPase domain of Pf 23S rRNApl; assay: Thiostrepton filter binding assay, transcripts of the GTPase domain of Pf 23S rRNApl (wild type and mutated); set-up: species or system Plasmodium falciparum
Experimental: (§1) A) Short 23S transcripts of P.falciparum (Pf) wild type rRNApl (open circle A1067) and mutated forms (open square A1067U and filled triangle A1067G), as well as Pf 28S rRNA transcripts (filled square), are compared with an optimized E.coli control transcript (filled circle). For convenience, nucleotide numbers correspond to E.coli.
(§2) Drug binding—Thiostrepton binding to short rRNA transcripts generated in vitro was assayed according to Ryan et al 1991, as modified by Clough et al 1997. […] Before […], samples were incubated on ice for 15 mins in 50 mM imidazole acetate (pH 7.6), 10 mM NH4Cl, 10 mM MgCl2, 1 mM […] and 100 μM GDP, in a final volume of 20 μl.
Having established thiostrepton's activity, we asked “does the antibiotic bind preferentially to the nuclear, mitochondrial or plastid forms of Pf 28/23 S rRNA?”. Evidence that the highest affinity interaction of thiostrepton is with 23S rRNApl was obtained from an in vitro binding assay (Ryan et al 1991). Short transcripts of wild type (wt) RNA corresponding to the GTPase domain of Pf 23S rRNApl (nts 987-1078) were transcribed in vitro from a PCR product that included a T7 promoter sequence in one of the primers. Mutated malarial rRNA sequences (E.coli numbers A1067U and A1067G) were obtained by PCR methodology and transcribed in the same way. Both wild type and modified transcript sequences were verified prior to thiostrepton binding assays. A positive control transcript was used based on the 23S rRNA sequence of E.coli with a mutation (U1061A) that increases stability and binding. […] An intermediate level of binding (˜35% of wt) was obtained with the mutation Pfpl (E.coli number A1067G). Thiostrepton binding to a transcript corresponding to the GTPase domain (nt 1334-1427) of the cytosolic Pf 28S rRNA was ˜10% of that for Pf 23S rRNApl.

[3] = tested on: GTPase domain of the cytosolic Pf 28S rRNA; assay: Thiostrepton filter binding assay, cytosolic Pf 28S rRNA transcript; set-up: species or system Plasmodium falciparum; conditions: GTPase domain nt 1334-1427
Experimental: as §1, §2
Having established thiostrepton's activity, we asked “does the antibiotic bind preferentially to the nuclear, mitochondrial or plastid forms of Pf 28/23 S rRNA?”. Evidence that the highest affinity interaction of thiostrepton is with 23S rRNApl was obtained from an in vitro binding assay (Ryan et al 1991). Short transcripts of wild type (wt) RNA corresponding to the GTPase domain of Pf 23S rRNApl (nts 987-1078) were transcribed in vitro from a PCR product that included a T7 promoter sequence in one of the primers. Mutated malarial rRNA sequences (E.coli numbers A1067U and A1067G) were obtained by PCR methodology and transcribed in the same way. […]

[4] = tested on: GTPase domain of the E. coli 23S rRNA; assay: Thiostrepton binding assay, E. coli 23S rRNA transcript; conditions: contains the A at position 1067
Experimental: The binding was specific. It depended to a large extent on the presence of an A residue at the position corresponding to E. coli position 1067. […] A transcript corresponding to the GTPase domain of the cytosolic malaria 28S rRNA also bound thiostrepton poorly.
as §2
Having established thiostrepton's activity, we asked “does the antibiotic bind preferentially to the nuclear, mitochondrial or plastid forms of Pf 28/23 S rRNA?”. Evidence that the highest affinity interaction of thiostrepton is with 23S rRNApl was obtained from an in vitro binding assay (Ryan et al 1991). Short transcripts of wild type (wt) RNA corresponding to the GTPase domain of Pf 23S rRNApl (nts 987-1078) were transcribed in vitro from a PCR product that included a T7 promoter sequence in one of the primers. Mutated malarial rRNA sequences (E.coli numbers A1067U and A1067G) were obtained by PCR methodology and transcribed in the same way. Both wild type and modified transcript sequences were verified prior to thiostrepton binding assays. […]

[5] = tested on: GTPase domain of the 23S rRNApl of Toxoplasma gondii; assay: Thiostrepton filter binding assay, T. gondii 23S rRNApl transcripts
Experimental: B) T. gondii wild type rRNApl transcript (filled triangle) and mutated transcript (open triangle) compared with control transcripts from P.falciparum rRNApl (open circle) and E.coli (filled circle).
as §2
In the same way, we tested a transcript corresponding to the GTPase domain of the 23S rRNApl of Toxoplasma gondii (Tg), a related apicomplexan that is an important opportunistic pathogen in patients with AIDS. […] This was found also to be the case with a transcript derived from a PCR product covering the GTPase domain of Tgpl 23S rRNA (nt 926-1024) (FIG. 8B). Corrective mutation of the Tgpl transcript (E. coli number […]) conferred a significant increase (×5) in thiostrepton binding (FIG. 8B).

For C=C(NC(=O)C(=C)NC(=O)c1csc(C2=N[C@@H]3c4csc(n4)[C@H]4NC(=O)c5csc(n5)[C@H]([C@](C)(O)[C@@H](C)O)NC(=O)[C@H]5CSC(=N5)/C(=C/C)NC(=O)[C@H]([C@@H](C)O)NC(=O)c5csc(n5)[C@]3(CC2)NC(=O)[C@H](C)NC(=O)C(=C)NC(=O)[C@H](C)NC(=O)[C@H]([C@@H](C)CC)N[C@@H]2C=Cc3c([C@H](C)O)cc(nc3[C@H]2O)C(=O)O[C@@H]4C)n1)C(N)=O [thiostrepton], the “onset of inhibition of protein synthesis” value [1] was 5 h, the IC50 ([1]; Plasmodium falciparum, 3 h, read-out: 50% inhibition of uptake of 3H-hypoxanthine and 14C-isoleucine) was 3 to 5 µM and the “thiostrepton binding, mutation A1067G” value ([2]; Pfpl transcript, E.coli number A1067G) was ~35 % of wt. The “thiostrepton binding, mutation A1067U” value ([2]; Pfpl transcript, E.coli number A1067U) was ~14 % of wt, the “thiostrepton binding to wild type transcript” value ([2]; short transcript of the GTPase domain, malaria plastid) was “bound thiostrepton strongly” and the “thiostrepton binding to Pf 28S rRNA transcript relative to Pf 23S rRNApl” value [3] was ~10%. The “thiostrepton binding to E. coli transcript” value [4] was “bind thiostrepton strongly”, the “increase in thiostrepton binding by corrective mutation U1077A” value ([5]; Tgpl transcript, E. coli number U1077A versus wild type) was 5 × and the “thiostrepton binding to wild type Tgpl transcript” value ([5]; wild type has substitution E.coli number A1077U, nt 926-1024) was “inhibits binding”.

From patent publication US20020058266A1, “EF-Tu protein encoded on the plastid DNA of the malaria parasite and protein synthesis inhibitors effective as anti-malarial compounds” (priority 1997, published 2002)
